Tested on: healthy subjects ≧60 years of age
Experiment: Adverse events during oral vancomycin pre-treatment period of the Phase 1 study
Format: in vivo, human
Method: VP20621 (10^4, 10^6, or 10^8 spores) or placebo were administered as a single dose to subjects age 18-45 (Group 1) or ≧60 years of age (Group 2). In Group 3, an oral suspension of 10^8 spores or placebo was administered twice daily for five days to patients≧60 years in age. In Group 4, subjects≧60 years of age received 5 days of oral vancomycin followed by 14 days of once daily VP20621 (10^4, 10^6, or 10^8 spores) or placebo. All subjects were followed through day 28. C. difficile stool cultures were performed at various time points. C. difficile isolates were tested for the production of toxin by enzyme immunoassay.
Purified VP 20621 (spores of a non-toxigenic strain of C. difficile) were produced in a liquid culture medium free of animal-derived components. VP 20621 was administered as an oral liquid suspension. The potency of the drug is based on the viable count of the spores.
Forty-three (43) subjects were pre treated with vancomycin to ensure that a sufficient number of subjects would be available for randomization to achieve the planned target sample size of 36. Twelve (28%) of the 43 subjects had adverse events during the vancomycin pre treatment period (Table 1).

[1] = vancomycin pre-treatment, N = 43

Compound: CN[C@H](CC(C)C)C(=O)N[C@H]1C(=O)N[C@@H](CC(N)=O)C(=O)N[C@H]2C(=O)N[C@H]3C(=O)N[C@H](C(=O)N[C@H](C(=O)O)c4cc(O)cc(O)c4-c4cc3ccc4O)[C@H](O)c3ccc(c(Cl)c3)Oc3cc2cc(c3O[C@@H]2O[C@H](CO)[C@@H](O)[C@H](O)[C@H]2O[C@H]2C[C@](C)(N)[C@H](O)[C@H](C)O2)Oc2ccc(cc2Cl)[C@H]1O [Vancomycin, vancomycin]
- Subjects with a gastrointestinal adverse effect (Group 4, during pre-treatment with vancomycin): 16%
- Subjects with mild diarrhea or loose/watery stools (Group 4, during pre-treatment with vancomycin (3/43)): 7%
- Subjects with adverse events (vancomycin pre treatment period, twelve of 43 subjects): 28%
- Gastrointestinal AEs: Abdominal distention [1]: 1 (2%)
- Gastrointestinal AEs: Abdominal pain [1]: 2 (5%)
- Gastrointestinal AEs: Flatulence [1]: 1 (2%)
- Gastrointestinal AEs: Gingival bleeding [1]: 1 (2%)
- Gastrointestinal AEs: Oral paresthesia [1]: 1 (2%)
- Gastrointestinal AEs: Toothache [1]: 1 (2%)
- Gastrointestinal AEs: Vomiting [1]: 1 (2%)
- Other AEs: Dizziness [1]: 2 (5%)
- Other AEs: Dry skin [1]: 1 (2%)
- Other AEs: Malaise [1]: 1 (2%)
- Other AEs: Pruritis [1]: 1 (2%)
- Other AEs: Rash [1]: 1 (2%)
- Gastrointestinal AEs: Diarrhea (vancomycin pre-treatment, oral 125 mg QID Days −5 to −1, N = 43): 3 (7%)
